Measured values from patent US20250051762A1, “PLATFORM USING DNA-ENCODED SMALL MOLECULE LIBRARIES AND RNA SELECTION TO DESIGN SMALL MOLECULES THAT TARGET RNA” (University of Florida Research Foundation, Incorporated, priority 2021, published 2025).

Legend:
Assay type in all cases: cell-based, human
[1] = test system: PP4C; experiment: Western blot of PP4C in MDA-MB-231 cells; details: relative to β-actin, 48 h
Experimental: Western Blotting: MDA-MB-231 cells were grown in 6-well plates to ˜80% confluency in complete growth medium and then incubated with 9 at the indicated concentrations for 48 h. Total protein was extracted using M-PER Mammalian Protein Extraction Reagent (Pierce Biotechnology) using the manufacturer's protocol and quantified using a Micro BCA Protein Assay Kit (Pierce Biotechnology). Approximately 50 μg of total protein was separated on a 10% SDS-polyacrylamide gel, and then transferred to a PVDF membrane. The membrane was washed with 1× Tris-buffered saline (TBS) and then blocked in 1×TBST (1×TBS containing 0.1% (v/v) Tween-20) containing 5% (w/v) milk for 1 h at room temperature. […] The membrane was again washed with 1×TBST, and protein expression was quantified using SuperSignal West Pico Chemiluminescent Substrate (Pierce Biotechnology) per the manufacturer's protocol.
To quantify b-actin expression, used for normalization, the membrane was stripped using 1× Stripping Buffer (200 mM glycine, pH 2.2 and 0.1% SDS) followed by washing in 1×TBST. […] The fold change of the target protein expression (PP4C or PDCD4) was calculated by normalizing its band intensity to b-actin band intensity using ImageJ.

[2] = test system: MCF-10a cells that express WT pri-miR-27a; experiment: Migration of MCF-10a cells expressing WT pri-miR-27a
Experimental: MCF-10a cells were transfected with plasmids to express pri-miR-27a and mutant pri-miR-27a in 12- or 24-well plates with Lipofectamine 2000 per the manufacturer's protocol. For treatment of compounds, stocks were diluted in growth medium and added to cells for 48 h. The miRCURY miR-27a LNA inhibitor (QIAGEN, Cat #339121) was used as a positive control by diluting in growth medium to a final concentration of 1 nM. The miRCURY LNA Negative Control (QIAGEN, Cat #YI00199007-DDA) was used as a negative control, which has also diluted in growth medium to a final concentration of 1 nM.
Migration assay: MDA-MB-231 cells were grown in 60 mm diameter dishes and treated as described in “Cell culture and compound treatment” for 12 h. The medium was then removed and replaced with growth medium lacking FBS but with the same concentration of compound. After 12 h of serum starvation, the cells were detached and seeded to ThinCert™ (GBO) 24-well hanging inserts with 8 μm pores (˜5×10^4 cells per insert). Fresh growth medium with FBS was dispended in a 24-well plate (600 μL each well), and the ThinCert™ hanging inserts containing cells were then placed into the wells. After incubating for 24 h, the growth medium in the inserts was removed, and the remaining cells were washed twice with 1×DPBS. […] The remaining cells were then imaged by microscopy and counted for quantification (3 fields of view per sample).

[3] = test system: pri-miR-27a; experiment: RT-qPCR of pri- and mature miR-27a in MCF-7 cells; details: MCF-7, RT-qPCR
Experimental: (§1) Cell lines. Compounds were tested in MDA-MB-231 TNBC cells (HTB-26, ATCC), LNCaP metastatic prostate cancer cells (gifted from Junli Luo lab), MCF-7 (HTB-22, ATCC) breast cancer cells, HeLa cervical adenocarcinoma cells (CCL-2, ATCC), and MCF-10a, a model of healthy breast epithelial cells (CRL-10317, ATCC).
(§2) Cell culture and compound treatment. All cells were maintained at 37° C. with 5% CO2. MDA-MB-231 and LNCaP cells were cultured in RPMI 1640 medium with L-glutamine & 25 mM HEPES (Corning) supplemented with 10% (v/v) fetal bovine serum (FBS; Sigma) and 1× (v/v) Antibiotic-Antimycotic solution (Corning). MCF-7 and HeLa cells were cultured in DMEM medium with 4.5 g/L glucose (Corning), supplemented with 10% FBS, 1× (v/v) Glutagro (Corning), and 1× (v/v) Antibiotic-Antimycotic solution. […]
(§3) Analysis of mRNA abundance: Each cell line was grown as a monolayer in 12- or 24-well plates and treated as described in “Cell culture and compound treatment”. […] Relative abundance of mature miRNAs was calculated by normalizing to RNU6, and relative abundance for pri-miRNAs and mRNAs was calculated by normalizing to 18S ribosomal RNA, using the AAC, method. […]

[4] = test system: miR-23a; experiment: RT-qPCR of mature miR-23a in MDA-MB-231 cells
Experimental: as §1, §2, §3

[5] = test system: MDA-MB-231 cells; experiment: miRNome profiling of all miRNAs detectable in MDA-MB-231 cells; details: 1 μM, FDR <1%, P<0.01

C#CCN(CC(N)=O)C(=O)C[C@H](Cc1c[nH]c2ccccc12)NC(=O)[C@@H]1C[C@H](NC(=O)Cn2c(=O)[nH]c3ccccc3c2=O)CN1 [Compound 9]
PP4C expression [1]: upregulation | migration [2]: reduced migration | dose with significant inhibition of miR-27a processing [3]: 100 nM | effect on levels of mature miR-23a [4]: no effect | only statistically significant effect across the miRNome [5]: downregulation of miR-27a
